Measured values taken from PubChem BioAssay AID248 (DTP/NCI, 2004).
Several values for one entry are separate records, joined by “and”; a condition that tells them apart may be missing. Equal values may be shown once. Toxic doses and inconclusive results are not listed. Cut-off read from the data, not from the text of the source: active = T/C of 150% or more; inactive = T/C below 125%.

Tested on: L1210 leukemia ip in BDF1 mice, survival T/C
Assay: NCI In Vivo Anticancer Drug Screen. Data for tumor model L1210 Leukemia (intraperitoneal) in B6D2F1 (BDF1) mice
Details: endpoint: mean survival time, higher = longer survival
In short: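 In this screen, tumor-bearing mice given compound are compared to those given vehicle, and their survival values are reported as a treated-to-control quotient.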

[1] = dose: 100.0 mg/kg/injection, schedule: Q01DX009 (ip), vehicle: Klucel (hydroxypropylcellulose) (HPC)
[2] = dose: 200.0 mg/kg/injection, schedule: Q01DX009 (ip), vehicle: Klucel (hydroxypropylcellulose) (HPC)
[3] = dose: 100.0 mg/kg/injection, schedule: Q04DX003 (ip), vehicle: saline with Tween-80
[4] = dose: 200.0 mg/kg/injection, schedule: Q04DX003 (ip), vehicle: saline with Tween-80

Measured: T/C

CCO/C=C(/C(=O)OCC)C(=O)C(OCC)OCC
inactive: dose: 100.0 mg/kg/injection, schedule: Q01DX009 (ip), vehicle: saline 101 % of control | dose: 100.0 mg/kg/injection, schedule: Q04DX003 (ip), vehicle: saline 95 % of control | dose: 200.0 mg/kg/injection, schedule: Q01DX009 (ip), vehicle: saline 101 % of control | dose: 200.0 mg/kg/injection, schedule: Q04DX003 (ip), vehicle: saline 97 % of control | dose: 400.0 mg/kg/injection, schedule: Q01DX009 (ip), vehicle: saline 98 % of control | dose: 400.0 mg/kg/injection, schedule: Q04DX003 (ip), vehicle: saline 94 % of control

[CH3][Pb]([CH3])([CH3])[O]C(=O)C(F)(F)F
inactive: dose: 12.5 mg/kg/injection, schedule: Q04DX002 (ip), vehicle: saline 90 % of control

COC(=O)c1ccc(C(=O)O)nc1
inactive: [1] 104 % of control | [2] 94 % of control | dose: 400.0 mg/kg/injection, schedule: Q01DX009 (ip), vehicle: Klucel (hydroxypropylcellulose) (HPC) 102 % of control

BrC(Br)(c1ccccc1)C1OCCO1
inactive: dose: 50.0 mg/kg/injection, schedule: Q01DX009 (ip), vehicle: saline with Tween-80 100 % of control | dose: 100.0 mg/kg/injection, schedule: Q01DX009 (ip), vehicle: saline with Tween-80 106 % of control | dose: 200.0 mg/kg/injection, schedule: Q01DX009 (ip), vehicle: saline with Tween-80 93 % of control

CC(=O)NC1CCCC(CC2CCCCC2)C1 (centres undefined)
inactive: dose: 100.0 mg/kg/injection, schedule: Q04DX003 (ip), vehicle: Klucel (hydroxypropylcellulose) (HPC) 103 % of control | dose: 200.0 mg/kg/injection, schedule: Q04DX003 (ip), vehicle: Klucel (hydroxypropylcellulose) (HPC) 93 % of control | dose: 400.0 mg/kg/injection, schedule: Q04DX003 (ip), vehicle: Klucel (hydroxypropylcellulose) (HPC) 98 % of control

O=C1C=Cc2ccc(O)cc2C1=O
inactive: dose: 0.57 mg/kg/injection, schedule: Q01DX Z (ip), vehicle: saline 107 % of control | dose: 0.86 mg/kg/injection, schedule: Q01DX Z (ip), vehicle: saline 109 % of control | dose: 1.3 mg/kg/injection, schedule: Q01DX Z (ip), vehicle: saline 113 % of control | dose: 2.0 mg/kg/injection, schedule: Q01DX Z (ip), vehicle: saline 101 % of control and 104 % of control | dose: 3.0 mg/kg/injection, schedule: Q01DX Z (ip), vehicle: saline 89 % of control | dose: 4.5 mg/kg/injection, schedule: Q01DX Z (ip), vehicle: saline 95 % of control | dose: 6.7 mg/kg/injection, schedule: Q01DX Z (ip), vehicle: saline 101 % of control and 90 % of control | dose: 10.0 mg/kg/injection, schedule: Q01DX001 (ip), vehicle: acetone 104 % of control

NCCc1cnc(N=Nc2ccc(S(N)(=O)=O)cc2)[nH]1
inactive: [3] 93 % of control | [4] 96 % of control | dose: 400.0 mg/kg/injection, schedule: Q04DX003 (ip), vehicle: saline with Tween-80 86 % of control

O=C(Nc1ccc([N+](=O)[O-])cc1)c1cc(N2CCOCC2)ccn1
inactive: dose: 100.0 mg/kg/injection, schedule: Q01DX001 (ip), vehicle: saline 89 % of control and 91 % of control | dose: 200.0 mg/kg/injection, schedule: Q01DX001 (ip), vehicle: saline 94 % of control and 95 % of control | dose: 400.0 mg/kg/injection, schedule: Q01DX001 (ip), vehicle: saline 95 % of control and 91 % of control

COC12CC3C4=CCOC5CC(=O)N6c7ccccc7C1(CCN2C4)C6C53 (centres undefined)
inactive: dose: 5.0 mg/kg/injection, schedule: Q01DX001 (ip), vehicle: saline 97 % of control | dose: 10.0 mg/kg/injection, schedule: Q01DX001 (ip), vehicle: saline 97 % of control | dose: 20.0 mg/kg/injection, schedule: Q01DX001 (ip), vehicle: saline 101 % of control

O=C(OC1(c2ccccc2)OC(=O)c2ccccc21)c1ccccc1C(=O)c1ccccc1 (centres undefined)
inactive: [3] 92 % of control | [4] 91 % of control

O=C(O)CSc1c([N+](=O)[O-])cc(C(F)(F)F)cc1[N+](=O)[O-]
inactive: dose: 50.0 mg/kg/injection, schedule: Q01DX009 (ip), vehicle: Klucel (hydroxypropylcellulose) (HPC) 101 % of control | [1] 101 % of control | [2] 95 % of control

CCCS(=O)(=O)N1CCCC1
inactive: dose: 100.0 mg/kg/injection, schedule: Q04DX002 (ip), vehicle: saline with Tween-80 99 % of control | dose: 200.0 mg/kg/injection, schedule: Q04DX002 (ip), vehicle: saline with Tween-80 105 % of control | dose: 400.0 mg/kg/injection, schedule: Q04DX002 (ip), vehicle: saline with Tween-80 99 % of control

CCN(CC)c1ccc(C(=O)OCCNC2CCCCC2)cc1
inactive: dose: 75.0 mg/kg/injection, schedule: Q01DX001 (ip), vehicle: carboxymethylcellulose (CMC) 94 % of control | dose: 150.0 mg/kg/injection, schedule: Q01DX001 (ip), vehicle: carboxymethylcellulose (CMC) 98 % of control

O=C(Nc1ccc(N=C(Nc2ccccc2)c2ccccc2)cc1)c1ccc(C(=O)Nc2ccc(N=C(Nc3ccccc3)c3ccccc3)cc2)cc1
inactive: dose: 15.0 mg/kg/injection, schedule: Q01DX Z (ip), vehicle: carboxymethylcellulose (CMC) 93 % of control | dose: 30.0 mg/kg/injection, schedule: Q01DX Z (ip), vehicle: carboxymethylcellulose (CMC) 93 % of control | dose: 60.0 mg/kg/injection, schedule: Q01DX Z (ip), vehicle: carboxymethylcellulose (CMC) 97 % of control | dose: 120.0 mg/kg/injection, schedule: Q01DX Z (ip), vehicle: carboxymethylcellulose (CMC) 95 % of control

O=[N+]([O-])c1cc([N+](=O)[O-])c(Br)cc1F
inactive: dose: 2.5 mg/kg/injection, schedule: Q01DX009 (ip), vehicle: Klucel (hydroxypropylcellulose) (HPC) 92 % of control | dose: 5.0 mg/kg/injection, schedule: Q01DX009 (ip), vehicle: Klucel (hydroxypropylcellulose) (HPC) 99 % of control
